Patent US20130315920A1, “Cross Protective Epitopes of Aspergillus Fumigatus and Candida Albicans” (Cell Medica Limited, priority 2010, published 2013)

Legend:
[1] = tested on: DC transfected with Crf1 mRNA; test: Peptide-specific T-cell clones stimulated with Crf1 mRNA-transfected DC (IFN-γ); format: cell-based, human; settings: for Response of peptide-specific CD4+ T-cell clones to endogenously processed antigen: all donors
Procedure: (§1) T-cell cloning was performed as described in below. T-cell clones were stimulated either with mature peptide-pulsed (2.5 μg/ml) or Crf1 mRNA-transfected DC, immature DC incubated for 24 h with A. fumigatus cell extract (20 μg/ml) in the presence of cytokine maturation cocktail or immature DC incubated for 24 h with inactivated A. fumigatus or C. albicans fungus (multiplicity of infection 3) in a R:S ratio of 5:1.
For T-cell cloning 6×10^7 PBMC were stimulated overnight with 5 μg/ml peptide and 1 μg/ml CD40 antibody (HB14, Miltenyi Biotec). Cells were labelled with anti-CD154^+ microbeads and isolated by magnetic cell separation according to the manufacturers' instructions (Miltenyi Biotec). Selected cells were cultured with γ-irradiated autologous PBMC (ratio 1:50) and cytokines were supplemented as described above. On d14, T-cell clones were generated by limiting dilution in 96-well plates and expanded using the rapid expansion protocol previously described^50.
A. fumigatus Crf1 cDNA was cloned into the pGEM4Z vector (provided by Kris Thielemans) and in vitro transcribed using mMESSAGE mMACHINE T Ultra Kit (Ambion) according to the manufacturers' instructions. Crf1 was fused to the N-terminal domain of the invariant chain to enhance antigen presentation by MHC class II^51,52. Maturated DC were electroporated with 15 μg mRNA at 300V and 150 μF using the EQUIBIO EasyjecT Plus® apparatus (EQUIBIO) in serum-free medium (OptiMEM, Gibco)^41.

[2] = tested on: T-cell lines of 7 donors with different MHC class II alleles; test: Epitope mapping of Crf1 peptides with IFN-γ ELISPOT; format: cell-based, human; settings: 7 donors tested, peptide-pulsed autologous DC
From the text: (§2) As the identification of potential protective fungal antigens is rather intricate due to the extensiveness of fungal genomes, we analyzed 6 different A. fumigatus recombinant proteins based on their previously reported immunogeneic reactivity in mice and humans^7,10. […] By contrast, GPI-anchored extracellular cell wall glucanase Crf1 and secreted protein peptidase induced high IFN-γ in 6 of 7 and 5 of 10 tested donors, respectively. The response was mediated by CD4^+ TH1 cells, as MHC class II blocking antibody nearly abrogated IFN-γ release (data not shown). Due to the broad response and the sequence similarity to the C. albicans orthologue Crh1, we focused in subsequent experiments on the protein Crf1. By epitope mapping of 7 healthy individuals with different MHC class II alleles, we identified 10 potential candidate epitopes (Table 1). Based on the results obtained by epitope mapping, the probability of antigen presentation by certain MHC class II alleles assessed by epitope prediction^11, previously reported immunogeneic reactivity^12 and sequence similarity to the C. albicans homologue Crh1, we then generated CD4^+ TH1 T-cell clones specific for the peptides p1, p22, p27, p41, p48, p59, p69 and p84 (FIG. 1a and Table 1).
A peptide library covering the complete Crf1 sequence consisting of 94 15-mer peptides overlapping by […] (aa) was divided into sub-pools of 10 peptides and 94 single peptides (p1-p94) (PANATecs). 3 11-mer peptides of p40/41 overlapping by 2aa ([…], […], HTYTIDWTKDA) were obtained from JPT Peptide Technologies.
(§3) For analysis of recombinant proteins and epitope mapping, T-cell lines were generated by incubation of 1×10^7 PBMC per well in 6-well cell culture plates with 5 μg/ml protein or peptide for 7d in the presence of 5 U/ml IL-2 (Proleukin, Chiron). Antigen specificity was analyzed by IFN-γ ELISA^42 after restimulation with autologous monocytes incubated overnight with 5 μg/ml protein in a responder to stimulator (R:S) ratio of 5:1. Epitope mapping was performed by IFN-γ ELISPOT^39 after stimulation with peptide-pulsed autologous DC at a R:S ratio of 10:1.

[3] = tested on: A. fumigatus cell extract; test: Peptide-specific T-cell clones stimulated with DC incubated with A. fumigatus cell extract (IFN-γ); format: cell-based, Aspergillus fumigatus; settings: extract 20 μg/ml, DC incubated 24 h
Procedure: as §1
(§4) Fungal extracts were generated as described^48 and protein content was measured by Bradford protein assay (Perbio Science) according to the manufacturers' instructions. For inactivated fungus Aspergillus conidia were inoculated in growth medium^49 and cultured for 0, 4, 8 or 12 h. Candida species were cultured for 24 h. Fungi were inactivated with 70% ethanol. Ethanol-inactivated fungi and extracts were validated for sterility by subculturing on Sabouraud dextrose agar.

[4] = tested on: C. albicans; test: Peptide-specific T-cell clones stimulated with inactivated C. albicans yeast; format: cell-based, Candida albicans; settings: inactivated C. albicans yeast, established strain
From the text: A. fumigatus Crf1 p41-specific T-cell clones are cross-reactive to C. albicans and can be activated by different clinical isolates of both fungi. (a) All A. fumigatus Crf1 p41-specific T-cell clones from different donors respond to stimulation with inactivated C. albicans yeast. IFN-γ values are given after subtraction of the negative control. Shown is 1 clone per antigen and donor (representative experiments, n≧3). (b) A. fumigatus Crf1 p41-specific T-cell clones respond to different inactivated clinical isolates of germinating A. fumigatus conidia and C. albicans yeast.
as §1, §4

[5] = tested on: A. flavus, A. nidulans, A. niger, A. terreus, C. glabrata and C. krusei; test: Cross-reactivity of T-cell clones to other Aspergillus and Candida species; format: cell-based; settings: data not shown
From the text: We then analyzed if our T-cell clones might cross-react to other clinically relevant Aspergillus and Candida species such as A. flavus, A. nidulans, A. niger, A. terreus, C. glabrata and C. krusei because they also express proteins with some sequence similarity to A. fumigatus Crf1. […] Thus, p41-specific TH1 cells represent a core repertoire in antifungal immune responses being reactive to A. fumigatus but also to C. albicans, the second most important pathogenic fungus in HSCT patients.
Fungal strains A. fumigatus D141, A. nidulans FGSCA4, C. albicans SC5314 and clinical isolates A. fumigatus, A. terreus, A. flavus, A. niger, C. albicans, C. glabrata and C. krusei were provided by Sven Krappmann, Joachim Morschhäuser and Reno Frei.

[6] = tested on: T-cell lines from PBMC of healthy donors; test: IFN-γ ELISA of T-cell lines stimulated with recombinant A. fumigatus proteins; format: cell-based, human; settings: 5 μg/ml protein
From the text: as §2
A. fumigatus superoxide dismutase^34, catalase^35, peptidase^36 and 1,3-beta-glucanosyl-transferase Gel1^30 were produced in the yeast Pichia pastoris as described^37. Extracellular cell wall glucanase Crf1^37 (cDNA provided by Utz Reichard) and the major allergen and cytotoxin AspF1^10 were expressed with FLAG-Tags in the human cell line phoenix GALV^38.
as §3

AKGGTRFPQTPMRLR (peptide epitope of A. fumigatus Crf1) [p48, Crf1 aa 189-203]
Response of peptide-specific CD4+ T-cell clones to endogenously processed antigen [1]: None of the CD4^+ T-cell clones specific for the peptides p48, p69 and p84 responded to Crf1 mRNA-transfected DC
Number of T-cell clones reacting to Crf1 mRNA-transfected DC/number of peptide-specific T-cell clones ([1]; donor 3): 0/7
Number of T-cell clones reacting to Crf1 mRNA-transfected DC/number of peptide-specific T-cell clones ([1]; donor 4): 0/4
Number of T-cell clones reacting to Crf1 mRNA-transfected DC/number of peptide-specific T-cell clones ([1]; donor 11): 0/5
No. of responders [2]: 3

GSSNTGSGSGSGSGS (peptide epitope of A. fumigatus Crf1) [p84, Crf1 aa 333-347]
Response of peptide-specific CD4+ T-cell clones to endogenously processed antigen [1]: None of the CD4^+ T-cell clones specific for the peptides p48, p69 and p84 responded to Crf1 mRNA-transfected DC
Number of T-cell clones reacting to Crf1 mRNA-transfected DC/number of peptide-specific T-cell clones ([1]; donor 4): 0/4
Number of T-cell clones reacting to Crf1 mRNA-transfected DC/number of peptide-specific T-cell clones ([1]; donor 11): 0/5
No. of responders [2]: 5

MYFKYTAAALAAVLP (peptide epitope of A. fumigatus Crf1) [p1, Crf1 aa 1-15]
Response of peptide-specific T-cell clones to A. fumigatus extract [3]: most Crf1 p1-specific T-cell clones of 2 of 4 donors responded to A. fumigatus extract
Response of peptide-specific CD4+ T-cell clones to endogenously processed antigen [1]: only some of the p1-, p22-, p27- and p59-specific CD4^+ T-cells clones responded to endogenously processed antigen
Number of T-cell clones reacting to Crf1 mRNA-transfected DC/number of peptide-specific T-cell clones ([1]; donor 5): 3/3
Number of T-cell clones reacting to Crf1 mRNA-transfected DC/number of peptide-specific T-cell clones ([1]; donor 6): 1/5
Number of T-cell clones reacting to Crf1 mRNA-transfected DC/number of peptide-specific T-cell clones ([1]; donor 7): 0/6
Number of T-cell clones reacting to Crf1 mRNA-transfected DC/number of peptide-specific T-cell clones ([1]; donor 12): 10/10
No. of responders [2]: 4
Cross-reactivity of peptide-specific T-cell clones to C. albicans [4]: none of the Crf1 p1-, Cal p27- and Cal p59-specific T-cell clones could be activated
Cross-reactivity to other Aspergillus and Candida species [5]: weak cross-reactivity to A. flavus, A. nidulans and A. terreus

PPNKGLAASTYTADF (peptide epitope of A. fumigatus Crf1) [p9, Crf1 aa 33-47]
No. of responders [2]: 3

SAGPYTMYVKSVRIE (peptide epitope of A. fumigatus Crf1) [p58, Crf1 aa 229-243]
No. of responders [2]: 3

SSSSVTSSTTSTASS (peptide epitope of A. fumigatus Crf1) [p69, Crf1 aa 273-287]
Response of peptide-specific CD4+ T-cell clones to endogenously processed antigen [1]: None of the CD4^+ T-cell clones specific for the peptides p48, p69 and p84 responded to Crf1 mRNA-transfected DC
Number of T-cell clones reacting to Crf1 mRNA-transfected DC/number of peptide-specific T-cell clones ([1]; donor 1): 0/3
Number of T-cell clones reacting to Crf1 mRNA-transfected DC/number of peptide-specific T-cell clones ([1]; donor 4): 0/2
No. of responders [2]: 3

TGSSTSAGASATPEL (peptide epitope of A. fumigatus Crf1) [p89, Crf1 aa 353-367]
No. of responders [2]: 4

TRFPQTPMRLRLGSW (peptide epitope of A. fumigatus Crf1) [p49, Crf1 aa 193-207]
No. of responders [2]: 4

YTMYVKSVRIENANP (11-mer peptide of p40/41) [p59, Crf1 aa 233-247]
Response of peptide-specific T-cell clones to A. fumigatus extract [3]: only very few T-cell clones specific for Cal p27 and Crf1 p59
Response of peptide-specific CD4+ T-cell clones to endogenously processed antigen [1]: only some of the p1-, p22-, p27- and p59-specific CD4^+ T-cells clones responded to endogenously processed antigen
Number of T-cell clones reacting to Crf1 mRNA-transfected DC/number of peptide-specific T-cell clones ([1]; donor 5): 1/3
Number of T-cell clones reacting to Crf1 mRNA-transfected DC/number of peptide-specific T-cell clones ([1]; donor 6): 2/2
Number of T-cell clones reacting to Crf1 mRNA-transfected DC/number of peptide-specific T-cell clones ([1]; donor 12): 1/7
No. of responders [2]: 5
Cross-reactivity of peptide-specific T-cell clones to C. albicans [4]: none of the Crf1 p1-, Cal p27- and Cal p59-specific T-cell clones could be activated
Cross-reactivity to other Aspergillus and Candida species [5]: none of the Crf1 p27-, p41- and p59-specific T-cell clones showed any cross-reactivity to these fungi

catalase
IFN-γ response [6]: only weak interferon-γ (IFN-γ) responses in some donors

superoxide dismutase
IFN-γ response [6]: only weak interferon-γ (IFN-γ) responses in some donors

B1: AspF1: recombinant A. fumigatus major allergen and cytotoxin AspF1 (His136Leu) (protein)
chain: ATWTCINQQLNPKTNKWEDKRLLYSQAKAESNSHHAPLSDGKTGSSYPHWFTNGYDGNGKLIKGRTPIKFGKADCDRPPKHSQNGMGKDDHYLLEFPTFPDGHDYKFDSKKPKEDPGPARVIYTYPNKVFCGIVALQRGNQGDLRLCSH
IFN-γ response [6]: only weak interferon-γ (IFN-γ) responses in some donors
